Data taken from US5004690A, “Ascorbic acid intermediates and process enzymes” (Genetech, Inc., priority 1989, dated 1991).
Where two headings read alike, the source gives them in different places.

Biological target: T1, 2,5-DKG reductase (Corynebacterium sp., UniProt P06632)
T1 construct: resuspension in 650 ml Tris buffer containing 2 mg/ml lyozyme to release intracellular proteins; endogenous in cells; host or cells: Corynebacterium sp; ATCC 31090 (enzyme purified in house from the cell paste)
T1 sequence (P06632 whole entry): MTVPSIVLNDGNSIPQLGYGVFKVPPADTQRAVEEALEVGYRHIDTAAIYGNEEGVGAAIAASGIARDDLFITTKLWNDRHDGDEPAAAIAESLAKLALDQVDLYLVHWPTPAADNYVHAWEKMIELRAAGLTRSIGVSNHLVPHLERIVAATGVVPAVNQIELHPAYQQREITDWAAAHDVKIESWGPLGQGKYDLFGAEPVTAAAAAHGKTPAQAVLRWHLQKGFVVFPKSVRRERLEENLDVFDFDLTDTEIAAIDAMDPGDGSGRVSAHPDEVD
Test: 2,5-DKG reductase assay: kinetic parameters, substrate specificity, cofactor requirements, pH optimum
Format: biochemical, Corynebacterium sp. ATCC 31090
Settings: sodium phosphate buffer 150 mM, pH 6.4, 25° C., enzyme 10 μg, read-out: Michaelis constants (Km)
Source text: The following assay conditions were used to determine kinetic parameters: […]

SMILES | Km (2,5-DKG 0.43-43 mM) [mM] | Km (NADPH 11-300 μM) [mM]
O=C(O)C(=O)[C@@H](O)[C@H](O)C(=O)CO [2,5-DKG, 2,5-diketogluconic acid] | 15.5 | 
NC(=O)C1=CN([C@@H]2O[C@H](COP(=O)(O)OP(=O)(O)OC[C@H]3O[C@@H](n4cnc5c(N)ncnc54)[C@H](OP(=O)(O)O)[C@@H]3O)[C@@H](O)[C@H]2O)C=CC1 [NADPH] |  | 0.0337
